Usually pIC50 stands for the negative decadic logarithm of the IC50, by convention in mol/L. A lower pIC50 goes with a high IC50.

Data set [1] concerns IL-1β production in PMA-differentiated THP-1 cells. The data set is described as follows: IL-1β production in PMA-differentiated THP-1 cells stimulated with gramicidin (hTHP-1 assay). The note with it: Homo sapiens, gramicidin 5 μM, 2% fetal bovine serum. The format is cell-based. The protocol: Procedure 1: IL-1β Production in PMA-Differentiated THP-1 Cells Stimulated with Gramicidin.
THP-1 cells were purchased from the American Type Culture Collection and sub-cultured according to instructions from the supplier. Cells were cultured in complete RPMI 1640 (containing 10% heat inactivated FBS, penicillin (100 units/ml) and streptomycin (100 μg/ml)), and maintained in log phase prior to experimental setup. Prior to the experiment, compounds were dissolved in dimethyl sulfoxide (DMSO) to generate a 30 mM stock. The compound stock was first pre-diluted in DMSO to 3, 0.34, 0.042 and 0.0083 mM intermediate concentrations and subsequently spotted using Echo550 liquid handler into an empty 384-well assay plate to achieve desired final concentration (e.g. 100, 33, 11, 3.7, 1.2, 0.41, 0.14, 0.046, 0.015, 0.0051, 0.0017 μM). DMSO was backfilled in the plate to achieve a final DMSO assay concentration of 0.37%. The plate was then sealed and stored at room temperature until required.
THP-1 cells were treated with PMA (Phorbol 12-myristate 13-acetate) (20 ng/ml) for 16-18 hours. On the day of the experiment the media was removed and adherent cells were detached with trypsin for 5 minutes. Cells were then harvested, washed with complete RPMI 1640, spun down, and resuspended in RPMI 1640 (containing 2% heat inactivated FBS, penicillin (100 units/ml) and streptomycin (100 μg/ml). The cells were plated in the 384-well assay plate containing the spotted compounds at a density of 50,000 cells/well (final assay volume 50 μl). Cells were incubated with compounds for 1 hour and then stimulated with gramicidin (5 μM) (Enzo) for 2 hours. Plates were then centrifuged at 340 g for 5 min. Cell free supernatant (40 μL) was collected using a 96-channel PlateMaster (Gilson) and the production of IL-1β was evaluated by HTRF (cisbio). The plates were incubated for 18 h at 4° C. and read using the preset HTRF program (donor emission at 620 nm, acceptor emission at 668 nm) of the SpectraMax i3x spectrophotometer (Molecular Devices, software SoftMax 6). A vehicle only control and a dose titration of CRID3 (100-0.0017 μM) were run concurrently with each experiment. Data was normalized to vehicle-treated samples (equivalent to 0% inhibition) and CRID3 at 100 μM (equivalent to 100% inhibition).
Procedure 2: IL-1β Production in PMA-Differentiated THP-1 Cells Stimulated with Gramicidin.
THP-1 cells were purchased from the American Type Culture Collection and sub-cultured according to instructions from the supplier. Prior to experiments, cells were cultured in complete RPMI 1640 (containing 10% heat inactivated FBS, penicillin (100 units/ml) and streptomycin (100 μg/ml)), and maintained in log phase prior to experimental setup. Prior to the experiment THP-1 were treated with PMA (Phorbol 12-myristate 13-acetate) (20 ng/ml) for 16-18 hours. Compounds were dissolved in dimethyl sulfoxide (DMSO) to generate a 30 mM stock. On the day of the experiment the media was removed and adherent cells were detached with trypsin for 5 minutes. Cells were then harvested, washed with complete RPMI 1640, spun down, resuspended in RPMI 1640 (containing 2% heat inactivated FBS, penicillin (100 units/ml) and streptomycin (100 μg/ml). The cells were plated in a 384-well plate at a density of 50,000 cells/well (final assay volume 50 μl). Compounds were first dissolved in assay medium to obtain a 5× top concentration of 500 μM. 10 step dilutions (1:3) were then undertaken in assay medium containing 1.67% DMSO. 5× compound solutions were added to the culture medium to achieve desired final concentration (e.g. 100, 33, 11, 3.7, 1.2, 0.41, 0.14, 0.046, 0.015, 0.0051, 0.0017 μM). Final DMSO concentration was at 0.37%. Cells were incubated with compounds for 1 hour and then stimulated with gramicidin (5 μM) (Enzo) for 2 hours. Plates were then centrifuged at 340 g for 5 min. […]

A short description of data set [2]: Colon pharmacokinetics in mice. Conditions: 30 mg/kg oral gavage in 0.5% methyl-cellulose in water, male C57BL/6 mouse, colon conc. to plasma conc. ratio at 8 h; read-out: Mouse TD Colon/Plasma @ 8 h. The format is in vivo. The protocol: Assay 2: Colon Pharmacokinetics in Mice
The test compound was formulated in 0.5% methyl-cellulose in water and dosed via oral gavage at 30 mg/kg to Male C57BL/6 Mouse. At various time points (typically 15 min, 30 min, 1, 2, 4, 6 and 8 h) post dosing, blood samples were removed via cardiac […] puncture and intact colons were excised from the […]. Blood samples were centrifuged at 1500×g for 15 min to collect plasma. At the terminal time point each individual animal is anaesthetized, abdominal cavity is opened and from 2 cm below the caecum a 4 cm sample of the colon is dissected, cut open on the longitudinal axis and the solid contents removed by flushing with 2 mL of physiological fluid. The colon was further washed by putting it in 5 mL of physiological saline and shaken for 1 minute. The colon was pet dry weighed and transferred in 2 mL tubes. Colon will be weighted and homogenized with water by tissue weight (g) to water volume (mL) at ratio 1:3 before analysis. The actual concentration is the detected value multiplied by the dilution factor. A colon to plasma ratio was determined as the ratio of the colon conc. to the plasma conc. in pg hr/g. at 8 h time point.

The structures appear in SMILES notation. pIC50: −log10 of the molar value.

For the compound `CC(C)c1cc(-c2ccc3c(c2)COCC3)cc(C(C)C)c1CC(=O)NS(=O)(=O)c1sc(C(C)(C)O)nc1CO` [Compound 101], the pIC50 in data set [1] (class symbols) is 5.30 to 6.00.

Compound `CC(C)c1cc2c(c(C(C)C)c1CC(=O)NS(=O)(=O)c1sc(C(C)(C)O)nc1CO)COC2` [Compound 102] gave a pIC50 in data set [1] (class symbols) of 5.30 to 6.00.

In data set [1] (class symbols), `COc1cc(S(=O)(=O)NCCCO)ccc1S(=O)(=O)NC(=O)Cc1c(C(C)C)cc(C#N)c(F)c1C(C)C` [Compound 103] had a pIC50 of 5.30 to 6.00.

Take `CC(C)c1ccc(C#N)c(C(C)C)c1CC(=O)NS(=O)(=O)c1sc(C(C)(C)O)nc1CO` [Compound 104]: the negative logarithm of the IC50 (pIC50) in data set [1] (class symbols) was 4.52 to 5.30.

As for `CC(C)c1c(F)c(C#N)cc(C2CC2)c1CC(=O)NS(=O)(=O)c1sc(C(C)(C)O)nc1CO` [Compound 105], the pIC50 in data set [1] (class symbols) was 5.30 to 6.00.

In the case of `COc1cc(S(=O)(=O)NCCO)ccc1S(=O)(=O)NC(=O)Cc1c(C(C)C)cc(C#N)c(F)c1C(C)C` [Compound 106], the pIC50 in data set [1] (class symbols) is 4.52 to 5.30.

Compound `CNS(=O)(=O)c1ccc(S(=O)(=O)NC(=O)Cc2c(C(C)C)cc(C#N)c(F)c2C(C)C)c(O)c1` [Compound 107] had a negative-log IC50 (pIC50) in data set [1] (class symbols) of 6.00 to 6.70.

For the compound `CC(C)c1cc(C#N)c(F)c(C(C)C)c1CC(=O)NS(=O)(=O)c1sc(C(C)(C)O)nc1CCO` [Compound 108], the negative-log IC50 (pIC50) in data set [1] (class symbols) was 6.00 to 6.70.

Take `CC(C)c1cncc(C(C)C)c1CC(=O)NS(=O)(=O)c1sc(C(C)(C)O)nc1CO` [Compound 109]: the pIC50 in data set [1] (class symbols) was 4.52 to 5.30.

`CNS(=O)(=O)c1ccc(S(=O)(=O)NC(=O)Cc2c(C(C)C)cc(C#N)c(F)c2C(C)C)c(C(N)=O)c1` [Compound 111] gave a pIC50 in data set [1] (class symbols) of 4.52 to 5.30.

Consider `CNS(=O)(=O)c1ccc(S(=O)(=O)NC(=O)Cc2c(C(C)C)cc(C#N)c(F)c2C(C)C)c(C(=O)N(C)C)c1` [Compound 112], for which the pIC50 in data set [1] (given as numeric bound) is below 4.00.

Compound `CNS(=O)(=O)c1ccc(S(=O)(=O)NC(=O)Cc2c(C(C)C)cc(C#N)c(F)c2C(C)C)c(C(=O)O)c1` [Compound 114] had a pIC50 in data set [1] (given as numeric bound) below 4.00.

Compound `CNS(=O)(=O)c1ccc(S(=O)(=O)NC(=O)Cc2c(C(C)C)cc(COC)cc2C(C)C)c(CO)c1` [Compound 116] showed a negative-log IC50 (pIC50) in data set [1] (class symbols) of 5.30 to 6.00.

As for `CNS(=O)(=O)c1ccc(S(=O)(=O)NC(=O)Cc2c(C(C)C)cc(C#N)c(F)c2C(C)C)c(OC)c1` [Compound 117], the pIC50 in data set [1] (class symbols) is 6.00 to 6.70. The Kp at 8 h in data set [2] is 3380.

In data set [1] (class symbols), `COCc1cc(C(C)C)c(CC(=O)NS(=O)(=O)c2sc(C(C)(C)O)nc2CO)c(C(C)C)c1` [Compound 118] showed a negative logarithm of the IC50 (pIC50) of 5.30 to 6.00.

On to `CCC(C)c1cc(C#N)cc(C(C)C)c1CC(=O)NS(=O)(=O)c1sc(C(C)(C)O)nc1CO` (stereo not drawn) [Compound 119], for which, in data set [1] (class symbols), the negative logarithm of the IC50 (pIC50) is 6.00 to 6.70. Besides, the Kp at 8 h in data set [2] amounted to 6720.

`CNS(=O)(=O)c1ccc(S(=O)(=O)NC(=O)Cc2c(C(C)C)cc(C#N)c(F)c2C(C)C)c(C(=O)OC)c1` [Compound 120] gave a pIC50 in data set [1] (class symbols) of 4.52 to 5.30.

Turning to `CC(C)Cc1cc(C#N)cc(C(C)C)c1CC(=O)NS(=O)(=O)c1sc(C(C)(C)O)nc1CO` [Compound 122], the negative logarithm of the IC50 (pIC50) in data set [1] (class symbols) was 5.30 to 6.00. Besides, the Kp at 8 h in data set [2] came to 1480.

Consider `Cc1cc(C(C)(C)O)c(CO)cc1S(=O)(=O)NC(=O)Cc1c(C(C)C)cc(C#N)cc1C(C)C` [Compound 123], for which the pIC50 in data set [1] (class symbols) was 4.52 to 5.30.

Consider `CC(C)c1cc(C#N)c(F)c(C(C)C)c1CC(=O)NS(=O)(=O)c1ccc(S(=O)(=O)NC(C)(C)C)cc1CO` [Compound 124], for which the negative logarithm of the IC50 (pIC50) in data set [1] (given as numeric bound) is below 4.00.

In data set [1] (class symbols), `CC(C)c1cc(C#N)c(F)c(C(C)C)c1CC(=O)NS(=O)(=O)c1cc(CO)c(C(C)(C)O)cc1F` [Compound 125] showed a pIC50 of 5.30 to 6.00.

On to `CC(C)c1cc(C#N)c(F)c(C(C)C)c1CC(=O)NS(=O)(=O)c1ccc(S(N)(=O)=O)cc1CO` [Compound 126], for which the pIC50 in data set [1] (given as numeric bound) is below 4.00.

Turning to `CNS(=O)(=O)c1ccc(S(=O)(=O)NC(=O)Cc2c(C(C)C)cc(C#N)c(F)c2C(C)C)c(CO)c1` [Compound 127], the negative-log IC50 (pIC50) in data set [1] (class symbols) is 6.00 to 6.70. Moreover, the Kp at 8 h in data set [2] came to 197.

In the case of `CNS(=O)(=O)c1ccc(S(=O)(=O)NC(=O)Cc2c(C(C)C)cc(C#N)c(F)c2C(C)C)cc1CO` [Compound 128], the negative-log IC50 (pIC50) in data set [1] (class symbols) was 6.00 to 6.70. Besides, in data set [2], the Kp at 8 h worked out at 1180.

As for `CNS(=O)(=O)c1cc(CO)cc(S(=O)(=O)NC(=O)Cc2c(C(C)C)cc(C#N)c(F)c2C(C)C)c1` [Compound 129], the negative-log IC50 (pIC50) in data set [1] (class symbols) is 5.30 to 6.00.

`CC(C)c1cc(C#N)cc(C(C)C)c1CC(=O)NS(=O)(=O)c1cc(CO)c(C(C)(C)O)cc1F` [Compound 130] gave a pIC50 in data set [1] (class symbols) of 5.30 to 6.00.

As to `CC(C)c1cc(C#N)c(F)c(C(C)C)c1CC(=O)NS(=O)(=O)c1ccc(S(N)(=O)=O)c(CO)c1` [Compound 131], in data set [1] (class symbols), the pIC50 is 5.30 to 6.00.

Regarding `CNC(=O)c1cc(S(=O)(=O)NC(=O)Cc2c(C(C)C)cc(C#N)c(F)c2C(C)C)ccc1S(=O)(=O)NC` [Compound 132], the pIC50 in data set [1] (class symbols) was 4.52 to 5.30.

In data set [1] (class symbols), `CC(C)c1cc(C#N)c(F)c(C(C)C)c1CC(=O)NS(=O)(=O)c1ccc(CN(C)C)c(CO)c1` [Compound 133] showed a negative-log IC50 (pIC50) of 5.30 to 6.00.

On to `CC(C)c1cc(C#N)cc(C(C)C)c1CC(=O)NS(=O)(=O)c1sc(C(C)(C)O)nc1CO` [Compound 134], for which, in data set [1] (class symbols), the negative logarithm of the IC50 (pIC50) was 5.30 to 6.00.

Take `CC(C)c1c(F)c(C#N)c(F)c(C(C)C)c1CC(=O)NS(=O)(=O)c1sc(C(C)(C)O)nc1CO` [Compound 135]: the pIC50 in data set [1] (class symbols) was 6.00 to 6.70.

Take `CC(C)c1cc(C#N)c(F)c(C(C)C)c1CC(=O)NS(=O)(=O)c1sc(C(C)(C)O)nc1CO` [Compound 136]: in data set [1] (class symbols), the pIC50 is 6.00 to 6.70.

As for `CC(C)c1cc(C#N)cc(C(C)C)c1CC(=O)NS(=O)(=O)c1ccc(CN(C)C)c(CO)c1` [Compound 137], the negative-log IC50 (pIC50) in data set [1] (class symbols) was 4.52 to 5.30.

With `CC(C)c1cc(C#N)c(F)c(C(C)C)c1CC(=O)NS(=O)(=O)c1ccc(C(C)(C)O)c(CO)c1` [Compound 138], the pIC50 in data set [1] (class symbols) was 5.30 to 6.00.

Compound `CNS(=O)(=O)c1ccc(S(=O)(=O)NC(=O)Cc2c(C(C)C)cc(COC3CCCC3)cc2C(C)C)c(CO)c1` [Compound 140] had a pIC50 in data set [1] (class symbols) of 6.70 to 7.40. In addition, the Kp at 8 h in data set [2] stood at 558.

Turning to `CC(C)c1cc(-c2ccc3c(c2)OC(F)(F)O3)cc(C(C)C)c1CC(=O)NS(=O)(=O)c1sc(C(C)(C)O)nc1CO` [Compound 142], the negative logarithm of the IC50 (pIC50) in data set [1] (class symbols) was 7.40 to 8.10.

The record behind these values is patent publication US20210395241A1, “NLRP MODULATORS” (Novartis AG, priority 2018, published 2021).
